30 compounds from EP4371976B1, “IONIZABLE LIPIDS AND LIPID NANOPARTICLES CONTAINING THEREOF” (Certest Biotec, S.L., priority 2022, dated 2024) can be followed below.

A short description of series [1]: Size distribution, polydispersity and Z-potential of LNPs by dynamic light scattering (Malvern Zetasizer). The format is physicochemical. The settings on record: LNPs, standard formulation 50:10:38.5:1.5; DLS. How it is done: (§1) The LNP solution was then adjusted to a final concentration of mRNA of 100 µg/ml. Size distribution, polydispersity and Z-potential were measured by dynamic light scattering (DLS) using Malvern Zetasizer Advance Lab Blue Label. RNA encapsulation was assessed by Quant-IT® Ribogreen following the manufacturer's instructions.

The nature of series [2]: RNA encapsulation efficiency of LNPs by Quant-IT Ribogreen. In kind it is physicochemical. The settings on record: LNPs with luciferase mRNA; ionizable lipid:non-cationic lipid:sterol:PEG-modified lipid 50:10:38.5:1.5; percentage of RNA entrapped in the LNP. On the procedure:
The mRNA aqueous solution was then carefully added to the ethanol solution, and the resulted solution was homogenized by pipetting up and down for 4-5 times. The resulting LNPs were immediately diluted 1:1 with Tris buffer and dialyzed overnight against Tris buffer containing 15% sucrose. The resulting LNP solution was then collected, and the encapsulated mRNA was assessed by Quant-IT® Ribogreen (Invitrogen R11490) following the manufacturer's instructions.
as §1

Series [3] in a line: Apparent pKa of LNPs comprising the ionizable lipid (Table 6). To be noted: standard formulation 50:10:38.5:1.5.

In the case of `CCCCCCCC/C=C\CCCCCCCC(=O)NC(CCSCCC(=O)OCCCCCCCC(C)C)C(=O)NCCCN(CCO)CCO` (centres unmarked) [VC-LC-0292], in series [1], the P.D.I. is 0.18, the “Particle size/ Ø (nm)” value worked out at 177.7 nm and the “Z Potential (± D.E.) [mV]” value is listed as 7.79 mV. Further, the “Encaps. efficiency (%)” value in series [2] is 94.63%. Also, the “Apparent pKa” value in series [3] came to 7.06.
On to `CCCCCCCCCCCCCCCCOC(=O)CCSCCC(NC(=O)C(CCCCCC)CCCCCCCC)C(=O)NCCN1CCN(C)CC1` (centres unmarked) [VC-LC-0185], for which, in series [1], the “Z Potential (± D.E.) [mV]” value was -1.54 mV. In addition, in series [2], the “Encaps. efficiency (%)” value is 70.97%. Also, the “Apparent pKa” value in series [3] turned out to be 5.85.
Turning to `CCCCCCCCCCCCCCOC(=O)CCSCCC(C(=O)NCCCN1CCOCC1)C(=O)OCC(CCCCCC)CCCCCCCC` (centres unmarked) [VC-LC-0610], in series [1], the P.D.I. turned out to be 0.13, the “Particle size/ Ø (nm)” value came out at 168.1 nm and the “Z Potential (± D.E.) [mV]” value is reported as -21.04 mV. The “Encaps. efficiency (%)” value in series [2] came to 55.68%. Also, the “Apparent pKa” value in series [3] is 5.93.
On the same counts, the results for `CCCCCCCCCCCCOC(=O)CCSCCC(NC(=O)C(CCCCCC)CCCCCCCC)C(=O)NCCN(CC)CC` (centres unmarked) [VC-LC-0477] are 0.15, 146.7 nm, -9.55 mV, 57.43% and 6.65.
For the compound `CCCCCCCCCCCCCCCCCCOC(=O)CCSCCC(NC(=O)CCCCCCCCCCCCCCCCC)C(=O)NCCCN1CCOCC1` (centres unmarked) [VC-LC-0380], in series [1], the P.D.I. is recorded as 0.25, the “Particle size/ Ø (nm)” value turned out to be 170.6 nm and the “Z Potential (± D.E.) [mV]” value is -17.08 mV. For the same compound, the “Encaps. efficiency (%)” value in series [2] is recorded as 71.74%.
On the same counts, the results for `CCCCCCCCCCCCCCCCCC(=O)NC(CCSCCC(=O)OCCCCCCCCCCCCC)C(=O)NC1CCN(C)CC1` (centres unmarked) [VC-LC-0435] are 0.2, 182.6 nm, 8.58 mV and 99.22%.
For `CCCCCCCC/C=C\CCCCCCCC(=O)NC(CCSCCC(=O)OCCCCCCCCCCCCCCCC)C(=O)NCCCN(CCO)CCO` (centres unmarked) [VC-LC-0290], in series [1], the “Particle size/ Ø (nm)” value came to 266.4 nm and the “Z Potential (± D.E.) [mV]” value is -22.79 mV. The “Encaps. efficiency (%)” value in series [2] turned out to be 56.36%.
On to `CCCCCCCCCCCCOC(=O)CCSCCC(NC(=O)C(CCCCCC)CCCCCCCC)C(=O)NCCCn1ccnc1` (centres unmarked) [VC-LC-0260], for which, in series [1], the P.D.I. turned out to be 0.18, the “Particle size/ Ø (nm)” value amounted to 161.7 nm and the “Z Potential (± D.E.) [mV]” value was -17.24 mV. Also, the “Encaps. efficiency (%)” value in series [2] is listed as 44.25%.
`CCCCCCCCC(CCCCCC)C(=O)NC(CCSCCC(=O)OCCCCCC(C)C)C(=O)NCCCN1CCOCC1` (centres unmarked) [VC-LC-0171]: in series [1], the P.D.I. was determined as 0.24, the “Particle size/ Ø (nm)” value was 228.8 nm and the “Z Potential (± D.E.) [mV]” value is -23.07 mV. Besides, in series [2], the “Encaps. efficiency (%)” value was determined as 53.65%.
On the same counts, the results for `CCCCCCCCC(CCCCCC)C(=O)NC(CCSCCC(=O)OCCCCCC)C(=O)NCCCN1CCOCC1` (centres unmarked) [VC-LC-0175] are 0.09, 120 nm, -15.84 mV and 23.97%.
On the same counts, the results for `CCCCCCCCCCCCOC(=O)CCSCCC(NC(=O)C(CCCCCC)CCCCCCCC)C(=O)NCCCN1CCCC1` (centres unmarked) [VC-LC-0245] are 0.16, 177.3 nm, 5.96 mV and 94.64%.
On the same counts, the results for `CCCCCCCCC(CCCCCC)C(=O)NC(CCSCCC(=O)OCC(CC)CCCC)C(=O)NCCCN1CCOCC1` (centres unmarked) [VC-LC-0166] are 0.11, 164.8 nm, -24.55 mV and 42.53%.
In the case of `CCCCCCCCC(CCCCCC)C(=O)NC(CCSCCC(=O)OCC(CC)CCCC)C(=O)NCCN1CCN(C)CC1` (centres unmarked) [VC-LC-0181], in series [1], the P.D.I. is 0.35, the “Particle size/ Ø (nm)” value is given as 206.7 nm and the “Z Potential (± D.E.) [mV]” value is listed as -6.47 mV. The “Encaps. efficiency (%)” value in series [2] worked out at 85.48%.
On the same counts, the results for `CCCCCCCCC(CCCCCC)C(=O)NC(CCSCCC(=O)OCCCCCC(C)C)C(=O)NC1CCN(C)CC1` (centres unmarked) [VC-LC-0217] are 0.14, 156.7 nm, -2.41 mV and 72.79%.
On the same counts, the results for `CCCCCCCC#CCOC(=O)CCSCCC(NC(=O)CCCCCCC/C=C\CCCCCCCC)C(=O)NCCCN1CCOCC1` (centres unmarked) [VC-LC-0354] are 0.13, 234.3 nm, -0.57 mV and 68.28%.
Turning to `CCCCCCCCC(CCCCCC)C(=O)NC(CCSCCC(=O)OCC(CC)CCCC)C(=O)NCCCN1CCCC1` (centres unmarked) [VC-LC-0244], in series [1], the P.D.I. stood at 0.16, the “Particle size/ Ø (nm)” value was 175 nm and the “Z Potential (± D.E.) [mV]” value amounted to 1.09 mV. Also, the “Encaps. efficiency (%)” value in series [2] is recorded as 53.57%.
Regarding `CCCCCCCCC(CCCCCC)COC(=O)C(CSCCC(=O)OCCCCCCCC(C)C)CC(=O)NC1CCN(C)CC1` (centres unmarked) [VC-LC-0526], in series [1], the P.D.I. was 0.16, the “Particle size/ Ø (nm)” value is given as 124.7 nm and the “Z Potential (± D.E.) [mV]” value is 3.68 mV. For the same compound, the “Encaps. efficiency (%)” value in series [2] is on record as 97.90%.
Turning to `CCCCCCCCCCCCCCCCOC(=O)CCSCCC(NC(=O)C(CCCCCC)CCCCCCCC)C(=O)NCCCN1CCOCC1` (centres unmarked) [VC-LC-0170], in series [1], the “Particle size/ Ø (nm)” value amounted to 266.4 nm and the “Z Potential (± D.E.) [mV]” value was -22.79 mV. In addition, the “Encaps. efficiency (%)” value in series [2] came out at 56.36%.
For `CCCCCCCCCCCCCCCCOC(=O)CCSCCC(NC(=O)C(CCCCCC)CCCCCCCC)C(=O)NCCCN(CCO)CCO` (centres unmarked) [VC-LC-0201], in series [1], the “Particle size/ Ø (nm)” value came out at 259.7 nm and the “Z Potential (± D.E.) [mV]” value is reported as 2.80 mV. Moreover, in series [2], the “Encaps. efficiency (%)” value came to 86.70%.
As to `CCCCCCCCCCCCCCCCCCOC(=O)CCSCC(CC(=O)NCCCn1ccnc1)C(=O)OC(CCCCCCCC)CCCCCCCC` (centres unmarked) [VC-LC-0300], in series [1], the P.D.I. came to 0.17, the “Particle size/ Ø (nm)” value is reported as 156.9 nm and the “Z Potential (± D.E.) [mV]” value was -9.75 mV. Further, the “Encaps. efficiency (%)” value in series [2] came to 36.51%.
With `CCCCCCCCC(CCCCCC)C(=O)NC(CCSCCC(=O)OCCCCCCCC(C)C)C(=O)NCCCN1CCOCC1` (centres unmarked) [VC-LC-0165], in series [1], the P.D.I. is 0.21, the “Particle size/ Ø (nm)” value is recorded as 181.9 nm and the “Z Potential (± D.E.) [mV]” value was -26.69 mV. The “Encaps. efficiency (%)” value in series [2] amounted to 45.16%.
On the same counts, the results for `CCCCCCCCC(CCCCCC)C(=O)NC(CCSCCC(=O)OCCCCCC(C)C)C(=O)NCCN1CCN(C)CC1` (centres unmarked) [VC-LC-0186] are 0.18, 158.7 nm, 3.38 mV and 86.70%.
`CCCCCCCCC(CCCCCC)C(=O)NC(CCSCCC(=O)OCCCCCC)C(=O)NCCCN(CCO)CCO` (centres unmarked) [VC-LC-0206]: in series [1], the P.D.I. is recorded as 0.17, the “Particle size/ Ø (nm)” value turned out to be 179.9 nm and the “Z Potential (± D.E.) [mV]” value was -2.86 mV. The “Encaps. efficiency (%)” value in series [2] is on record as 82.26%.
Take `CCCCCCCCCCCCCOC(=O)CCSCC(CC(=O)NCCCn1ccnc1)C(=O)OC(CCCCCCCC)CCCCCCCC` (centres unmarked) [VC-LC-0294]: in series [1], the P.D.I. came to 0.09, the “Particle size/ Ø (nm)” value was found to be 160.7 nm and the “Z Potential (± D.E.) [mV]” value is given as -10.37 mV. Also, the “Encaps. efficiency (%)” value in series [2] is given as 65.74%.
On to `CCCCCCCCCCCCCCCCOC(=O)CCSCC(CC(=O)NC1CCN(C)CC1)C(=O)OCC(CCCCCC)CCCCCCCC` (centres unmarked) [VC-LC-0531], for which, in series [1], the P.D.I. turned out to be 0.19, the “Particle size/ Ø (nm)” value was 158.6 nm and the “Z Potential (± D.E.) [mV]” value worked out at 9.15 mV. In series [2], the “Encaps. efficiency (%)” value came out at 98.54%.
In the case of `CCCCCCCC/C=C\CCCCCCCC(=O)NC(CCSCCC(=O)OCCCCCCCCCCCCC)C(=O)NC1CCN(C)CC1` (centres unmarked) [VC-LC-0322], in series [1], the P.D.I. was 0.17, the “Particle size/ Ø (nm)” value is reported as 220.5 nm and the “Z Potential (± D.E.) [mV]” value is on record as 2.31 mV. Also, the “Encaps. efficiency (%)” value in series [2] came to 97.01%.
On the same counts, the results for `CCCCCCCCC(CCCCCC)C(=O)NC(CCSCCC(=O)OCC(CC)CCCC)C(=O)NCCCN(CCO)CCO` (centres unmarked) [VC-LC-0197] are 0.22, 262.2 nm, 1.39 mV and 90.54%.
On the same counts, the results for `CCCCCCCCCCCCCCCCCCOC(=O)CCSCC(CC(=O)NC1CCN(C)CC1)C(=O)OCC(CCCCCC)CCCCCCCC` (centres unmarked) [VC-LC-0530] are 0.26, 164 nm, 7.65 mV and 97.41%.
Turning to `CCCCCCCCC(CCCCCCCC)OC(=O)C(CCSCCC(=O)OCCCCCC(C)C)C(=O)NCCCn1ccnc1` (centres unmarked) [VC-LC-0370], in series [1], the P.D.I. is 0.21, the “Particle size/ Ø (nm)” value is 134.7 nm and the “Z Potential (± D.E.) [mV]” value is -7.08 mV. Also, in series [2], the “Encaps. efficiency (%)” value was 62.48%.
Take `CCCCCCCC/C=C\CCCCCCCC(=O)NC(CCSCCC(=O)OCCCCCCCCCCCC)C(=O)NC1CCN(C)CC1` (centres unmarked) [VC-LC-0326]: in series [1], the P.D.I. is 0.25, the “Particle size/ Ø (nm)” value was 181.9 nm and the “Z Potential (± D.E.) [mV]” value was 7.00 mV. The “Encaps. efficiency (%)” value in series [2] was determined as 99.06%.
